The subject of assay [1] is pentagastrin-stimulated acid secretion. Briefly: Measurement of Inhibition of Pentagastrin-stimulated Acid Secretion. To be noted: intraduodenal, rat, acid output from 1 to 4 hours after administration, pentagastrin 15 μg/kg/hr. It counts as in vivo, male Sprague-Dawley (SD)-strain rats. The method, then: Male Sprague-Dawley (SD)-strain rats were used. Each rat was operated to ligate the pylorus, and equip with a duodenal catheter and gastric fistula under a ether anesthesia. After the operation, each rat was placed in a Bollman-type cage and continuously infused pentagastrin (15 μg/kg/hr) through the tail vein. Test compounds were suspended in 0.5% aqueous sodium carboxymethylcellulose (which hereinafter be abbreviated as "vehicle"). Vehicle or test compound was administered through the intraduodenal catheter 1 hour after the beginning of pentagastrin infusion. Acidity of the collected gastric juice was measured by an automatic titillation device. Acid output was determined by multiplying the volume by the acidity of gastric juice. […] [formula]

The next assay deals with T1, CCK-B receptors (Cavia porcellus, UniProt H0VZC5).
T1 construct: Cerebral cortices were removed from Hartley-strain guinea pigs, the cerebral cortices were homogenized; from tissue; host or cells: cerebral cortex of Hartley-strain guinea pigs, crude membrane pellet
T1 sequence (H0VZC5 1-426): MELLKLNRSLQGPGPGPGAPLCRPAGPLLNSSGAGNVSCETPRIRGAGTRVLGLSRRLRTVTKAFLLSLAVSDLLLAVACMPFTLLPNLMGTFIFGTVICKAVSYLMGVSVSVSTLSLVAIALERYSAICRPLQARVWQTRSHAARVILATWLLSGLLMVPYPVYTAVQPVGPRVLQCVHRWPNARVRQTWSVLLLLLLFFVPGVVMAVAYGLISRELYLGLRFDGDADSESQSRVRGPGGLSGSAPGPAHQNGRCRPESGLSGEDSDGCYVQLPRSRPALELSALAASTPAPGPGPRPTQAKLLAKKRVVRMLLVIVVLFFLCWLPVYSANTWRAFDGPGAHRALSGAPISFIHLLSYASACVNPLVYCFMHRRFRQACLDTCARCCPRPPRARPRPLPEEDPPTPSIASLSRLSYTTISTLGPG
Briefly: Measurement of Binding Affinity for CCK-B Receptors. More on the design: species or system Hartley-strain guinea pig. As to conditions: inhibition of specific [3H]CCK-8 (1.0 nM) binding; guinea pig cerebral cortex; 25° C., 2 hours; pH 6.5; read-out: Ki (CCK-B receptors).

Another assay addresses T2, CCK-A receptors (Cavia porcellus, UniProt Q63931).
T2 construct: Pancreases were removed from Hartley-strain guinea pigs, the pancreases were homogenized; from tissue; host or cells: pancreas of Hartley-strain guinea pigs, crude membrane pellet
T2 sequence (Q63931 1-430): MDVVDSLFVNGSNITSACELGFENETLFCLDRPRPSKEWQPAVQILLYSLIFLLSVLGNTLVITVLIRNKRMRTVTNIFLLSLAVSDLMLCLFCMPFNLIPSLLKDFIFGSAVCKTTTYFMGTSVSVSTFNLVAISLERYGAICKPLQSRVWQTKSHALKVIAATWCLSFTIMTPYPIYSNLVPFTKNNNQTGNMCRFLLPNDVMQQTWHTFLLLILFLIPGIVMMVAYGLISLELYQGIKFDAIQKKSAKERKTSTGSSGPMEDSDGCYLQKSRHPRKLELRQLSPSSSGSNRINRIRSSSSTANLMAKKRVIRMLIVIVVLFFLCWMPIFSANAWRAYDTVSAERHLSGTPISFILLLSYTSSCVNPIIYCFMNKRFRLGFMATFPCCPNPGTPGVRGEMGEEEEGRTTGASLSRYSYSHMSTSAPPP
Briefly: Measurement of Binding Affinity for CCK-A Receptors. As to conditions: inhibition of specific [3H]L-364,718 (0.2 nM) binding; guinea pig pancreas; 25° C., 2 hours; pH 6.5. More on the design: species or system Hartley-strain guinea pig. As for the experimental part: Pancreases were removed from Hartley-strain guinea pigs, the pancreases were homogenized in 40 volumes of 10 mM PIPES buffer (pH 6.5, which hereinafter be abbreviated as "solvent") containing 1 mM EGTA, 30 mM MgCl2, 0.02% bacitracin, 0.02% soybean trypsin inhibitor and 0.3 M sucrose. The homogenate was filtrated through gauze and centrifuged at 50000×g for 10 minutes. Solvent was added to the pellet and recentrifuged as above. The final pellet thus obtained was homogenized in 40 volumes of solvent and used as the receptor preparation.
Binding assay was measured as follows. Fifty μl of [^3 H]L-364, 718 (at the final concentration of 0.2 nM) and 900 μl of the receptor preparation (50 μg protein/tube) were added to 50 μl of solvent, or L-364, 718 (1 μM) or a test compound. This mixture was incubated at 25° C. for 2 hours. After the reaction, the mixture was filtrated through Whatman GF/B filter presoaked in 0.1% BSA (bovine serum albumin). The filter was washed with 3 ml of ice-cold 10 mM PIPES buffer (pH 6.5) three times, immediately after the filtration. The filter was soaked in the ACS-II scintillation cocktail for one day and radioactivity was measured using a liquid scintillation counter. Non-specific binding was defined as the radioactivity in the presence of 1 μM L-364, 718. Specific binding was defined as the difference between total binding (used solvent without L-364, 718) and non-specific binding. lnhibitor dissociation constant (Ki) of each test compound was determined from the inhibition of specific [^3 H]L-364, 718 binding.

Molecules are shown by their SMILES. pKi: −log10 of the molar value.

This passage reports inhibition in vivo and Ki results from US6239131A, “1,5 Benzodiazepine derivatives” (Zeria Pharmaceutical Co., Ltd., priority 1996, dated 2001).

Experimental for CCK-B receptors: Cerebral cortices were removed from Hartley-strain guinea pigs, the cerebral cortices were homogenized in 50 volumes of 50 mM Tris-HCl buffer (pH7.4) and centrifuged at 50000×g for 10 minutes. The Tris-HCl buffer was added to the pellet and recentrifuged as above two times. The final pellet was rehomogenized in 10 mM HEPES buffer (pH 6.5, which hereinafter be abbreviated as "solvent") containing 5 mM MgCl2, 1 mM EGTA, 0.25 mg/ml bacitracin and 130 mM NaCl, and used as the receptor preparation.
Binding assay was measured as follows. Fifty μl of [^3 H]CCK-8 (at the final concentration of 1.0 nM) and 900 μl of the receptor preparation (800 μg protein/tube) were added to 50 μl of either solvent, CCK-8 (1 μM) or a test compound. These ware reacted at 25° C. for 2 hours. After the reaction, the mixture was filtrated through Whatman GF/B filter presoaked in 0.1% BSA. The filter was washed with 3 ml of ice-cold 50 mM Tris-HCl buffer (pH 7.4) four times, immediately after the filtration. The filter was soaked in the ACS-II scintillation cocktail for a day and radioactivity was measured using a liquid scintillation counter. Non-specific binding was defined as the radioactivity in the presence of 1 μM CCK-8. Specific binding was defined as the difference between total binding (used solvent without CCK-8) and non-specific binding. Inhibitor dissociation constant (Ki) of each test compound was determined from the inhibition of specific [^3 H]CCK-8 binding.

In assay [1], `CC(C)(C)C(=O)CN1C(=O)C(NC(=O)Nc2cccc(C(=O)O)c2)CN(c2ccccc2)c2ccccc21` (single isomer, unassigned; (-)) [Example 70 (-form), (-)-3-[3-(1-tert-butylcarbonylmethyl-2-oxo-5-phenyl-1,3,4,5-tetrahydro-2H-1,5-benzodiazepin-3-yl)ureido]benzoic acid] returned an inhibition in vivo at 1 mg/kg of 84.8%. The negative logarithm of the Ki (pKi) was 9.44 on CCK-B receptors and 6.59 on CCK-A receptors.
For `CC(C)(C)C(=O)CN1C(=O)C(NC(=O)Nc2cccc(SCC(=O)O)c2)CN(c2ccccc2)c2ccccc21` (single isomer, unassigned; (-)) [Example 88 (-form)], in assay [1], the inhibition in vivo at 1 mg/kg worked out at 68.4%. Besides, the negative-log Ki (pKi) on CCK-B receptors is 9.96; on CCK-A receptors, 7.78.
For `Cc1ccc2c(c1)N(CC(=O)C(C)(C)C)C(=O)C(NC(=O)Nc1cccc(C(=O)O)c1)CN2c1ccccc1` (single isomer, unassigned; (-)) [Example 97, (-)-3-[3-(1-tert-butylcarbonylmethyl-2-oxo-5-phenyl-8-methyl-1,3,4,5-tetrahydro-2H-1,5-benzodiazepin-3-yl)ureido]benzoic acid], the negative logarithm of the Ki (pKi) is 8.80 on CCK-B receptors and 6.44 on CCK-A receptors.
The molecule `CC(C)(C)OC(=O)CN1C(=O)C(NC(=O)Nc2cccc(C(=O)O)c2)CN(c2ccccc2)c2ccccc21` (stereo not shown) [Example 80, 3-[3-[1-tert-butoxycarbonylmethyl-2-oxo-5-phenyl-1,3,4,5-tetrahydro-2H-1,5-benzodiazepin-3-yl]ureido]benzoic acid] showed an inhibition in vivo at 3 mg/kg in assay [1] of 45.4%. Besides, on CCK-B receptors, the pKi is 8.58.
On the same counts, the results for `Cc1ccc2c(c1)N(CC(=O)c1ccccc1C)C(=O)C(NC(=O)Nc1cccc(C(=O)O)c1)CN2C(=O)C(C)(C)C` (racemic) [Example 13 (racemate), 3-[3-[1-(2-toluoylmethyl)-2-oxo-5-pivaloyl-8-methyl-1,3,4,5-tetrahydro-2H-1,5-benzodiazepin-3-yl]ureido]benzoic acid] are 80.9% and 8.50.
For `CC(C)(C)C(=O)CN1C(=O)C(NC(=O)Nc2cccc(C(=O)O)c2)CN(C2CCCCC2)c2ccccc21` (stereo not shown) [Example 121, 3-[3-(1-tert-butylcarbonylmethyl-2-oxo-5-cyclohexyl-1,3,4,5-tetrahydro-2H-1,5-benzodiazepin-3-yl)ureido]benzoic acid], the inhibition in vivo at 0.3 mg/kg in assay [1] (0.3 mg/kg) worked out at 47%. Besides, the negative logarithm of the Ki (pKi) on CCK-B receptors is 8.92.
As to `Cc1ccc2c(c1)N(CC(=O)c1ccccc1C)C(=O)C(NC(=O)Nc1cccc(C(=O)O)c1)CN2C(=O)C(C)(C)C` (single isomer, unassigned; (+)) [Example 13 (+form), (+)-3-[3-[1-(2-toluoylmethyl)-2-oxo-5-pivaloyl-8-methyl-1,3,4,5-tetrahydro-2H-1,5-benzodiazepin-3-yl]ureido]benzoic acid], the inhibition in vivo at 1 mg/kg in assay [1] came out at 81.5%. Besides, the negative-log Ki (pKi) on CCK-B receptors was 8.94.
In the same order, the values of `CC(C)(C)C(=O)CN1C(=O)[C@H](NC(=O)Nc2cccc(SCC(=O)O)c2)CN(C2CCCCC2)c2ccccc21` [Example 169, (R)-(-)-3-[3-(1-tert-butylcarbonylmethyl-2-oxo-5-cyclohexyl-1,3,4,5-tetrahydro-2H-1,5-benzodiazepin-3-yl)ureido]phenylthioacetic acid] are 75.2% and 10.00.
`Cc1ccc2c(c1)N(CC(=O)c1ccccc1C)C(=O)C(NC(=O)Nc1cccc(C(=O)O)c1)CN2C(=O)C(C)(C)CCl` (stereo not shown) [Example 94, 3-[3-[1-(2-toluoylmethyl)-2-oxo-5-(3-chloro-2,2-dimethylpropionyl)-8-methyl-1,3,4,5-tetrahydro-2H-1,5-benzodiazepin-3-yl]ureido]benzoic acid]: the inhibition in vivo at 30 mg/kg in assay [1] (30 mg/kg) came out at 93.3%. The pKi on CCK-B receptors was 8.79.
On to `CC(=O)N1CC(NC(=O)Nc2cccc(C(=O)O)c2)C(=O)N(CC(=O)c2ccccc2C)c2cc(C)ccc21` (stereo not shown) [Example 111, 3-[3-[1-(2-toluoylmethyl)-2-oxo-5-acetyl-8-methyl-1,3,4,5-tetrahydro-2H-1,5-benzodiazepin-3-yl]ureido]benzoic acid], for which the pKi at CCK-A receptors was 8.20.
Same read-out and setting: with `Cc1cccc(NC(=O)NC2CN(C(=O)C3CCCCC3)c3ccccc3N(CC(=O)c3ccccc3C)C2=O)c1` (stereo not shown) [Example 14, 1-[1-(2-toluoylmethyl)-2-oxo-5-cyclohexylcarbonyl-1,3,4,5-tetrahydro-2H-1,5-benzodiazepin-3-yl]-3-(3-methylphenyl)urea] the figure was 7.88.
In the case of `CC(C)(C)C(=O)CN1C(=O)[C@H](NC(=O)Nc2cccc(C(=O)NS(C)(=O)=O)c2)CN(C2CCCCC2)c2ccccc21` [Example 168, (R)-(-)-1-(1-tert-butylcarbonylmethyl-2-oxo-5-cyclohexyl-1,3,4,5-tetrahydro-2H-1,5-benzodiazepin-3-yl)-3-(3-methylsulfonylaminocarbonylphenyl)urea], the inhibition in vivo at 1 mg/kg in assay [1] is 58.9%. Moreover, the pKi at CCK-B receptors was 9.68.
In turn, `Cc1ccc2c(c1)N(CC(=O)C(C)(C)C)C(=O)C(NC(=O)Nc1cccc(C(=O)O)c1)CN2c1ccccc1` (stereo not shown) [Example 95, 3-[3-(1-tert-butylcarbonylmethyl-2-oxo-5-phenyl-8-methyl-1,3,4,5-tetrahydro-2H-1,5-benzodiazepin-3-yl]ureido]benzoic acid] returned an inhibition in vivo at 1 mg/kg in assay [1] of 49%. On CCK-B receptors, the negative-log Ki (pKi) was 8.65.
As to `CC(C)(C)C(=O)CN1C(=O)[C@H](NC(=O)Nc2cccc(C(=O)O)c2)CN(C2CCCCC2)c2ccccc21` [Example 143, (R)-(-)-3-[3-(1-tert-butylcarbonylmethyl-2-oxo-5-cyclohexyl-1,3,4,5-tetrahydro-2H-1,5-benzodiazepin-3-yl)ureido]benzoic acid], in assay [1] (0.1 mg/kg), the inhibition in vivo at 0.1 mg/kg came to 54.6%. In addition, on CCK-B receptors, the pKi is 9.20.
In turn, `Cc1cccc(NC(=O)NC2CN(C(=O)C3CCCC3)c3ccccc3N(CC(=O)c3ccccc3C)C2=O)c1` (stereo not shown) [Example 28, 1-[1-(2-toluoylmethyl)-2-oxo-5-cyclopentylcarbonyl-1,3,4,5-tetrahydro-2H-1,5-benzodiazepin-3-yl]-3-(3-methylphenyl)urea] had a negative logarithm of the Ki (pKi) on CCK-A receptors of 7.84.
For the molecule `CC(C)(C)C(=O)CN1C(=O)C(NC(=O)Nc2cccc(C(=O)O)c2)CN(C(=O)C(C)(C)C)c2ccccc21` (stereo not shown) [Example 10, 3-[3-(1-tert-butylcarbonylmethyl-2-oxo-5-pivaloyl-1,3,4,5-tetrahydro-2H-1,5-benzodiazepin-3-yl)ureido]benzoic acid], in assay [1] (10 mg/kg, read-out: % Inhibition of acid output), the inhibition in vivo at 10 mg/kg turned out to be 67.1%. Moreover, at CCK-B receptors, the pKi was 8.16.
